Results: US12214036B2, “Combination therapy comprising AXL/MER and PD-1/PD-L1 inhibitors” (Incyte Corporation, priority 2020, dated 2025)

Key:
[1] = tested on: macrophage-mediated suppression of T-cell proliferation; test: Macrophage suppression of T-cell proliferation assay; format: cell-based, human
Procedure: To examine the functional activity of Compound 1, the effects on macrophage-mediated suppression of T-cell proliferation were evaluated.
Human PBMCs were isolated from the peripheral blood of healthy donors by density gradient centrifugation on Ficoll-Hypaque (GE Healthcare, Chicago, Ill.; #17-1440-02) followed by purification with anti-CD14 Microbeads (Miltenyi Biotec; #130-050-201). Isolated CD14^+ monocytes/macrophages were incubated with 100 ng/mL M-CSF (R&D Systems; #216-MC) and 50 ng/mL TGFβ1 (R&D Systems; #240-B) at 37° C. for 6 days; 100 μL/well of CD14^+ macrophages were seeded at 0.5×10^6 cells/mL in a 96-well round-bottomed culture plate (Costar; #3799) and treated with Compound 1 overnight at 37° C. CD4^+CD25^− effector T (Teff) cells were isolated using the Dynabeads regulatory CD4^+CD25^+ T-cell kit (Life Technologies; #11363D) and the Teff cells were labeled with carboxyfluorescein succinimidyl ester (CFSE) using the CellTrace CFSE Cell Proliferation kit (ThermoFisher Scientific; #C34554). […] Teff cells were analyzed by a flow cytometer (BD LSRFortessa X-20, BD Biosciences, San Jose, Calif.) and the cell-free supernatant was tested in the Luminex assay (Millipore; #HCYTOMAG-60K_38plex) to measure the concentrations of different cytokines and chemokines.

CTG-1339 tumors = test: Sarcoma PDX model CTG-1339 (osteosarcoma); format: in vivo, athymic nude mice
Procedure: Macrophages were allowed to thaw on ice before being lysed with 250 μL/well of 1× Lysis Buffer (Cell Signaling Technology; #9803) and Halt protease and phosphatase inhibitors (ThermoFisher Scientific) for 1 hour at 4° C. The lysed cells were scraped and transferred to an Eppendorf vial on ice. The lysates were centrifuged at 12,700 rpm for 15 minutes at 4° C. PDX tumors were weighed and homogenized with lysis buffer supplemented with protease and phosphatase inhibitor cocktails (Roche, Basel, Switzerland; #11836170001). Tumors were lysed on ice for 30 minutes, followed by centrifugation at 13,000 rpm for 10 minutes. Protein lysates were quantified using BCA Protein Assay Kit (Pierce, ThermoFisher Scientific; #23225). Lysates were transferred to a new tube together with 6× Laemmli SDS sample buffer (Alfa Aesar, Haverhill, Mass.) and the samples were heated for 6 minutes at 95° C. Approximately 50 μg of protein sample was loaded per well using Novex™ 8-16% Tris-Glycine Mini Gels or 4-12% Tris-Glycine Novex WedgeGels (Invitrogen, Carlsbad, Calif.). The proteins were transferred to a nitrocellulose membrane using an iBlot (ThermoFisher Scientific) dry blotting system. The membranes were blocked with 0.5% nonfat dry milk in wash buffer (100 mM NaCl, 10 mM Tris-HCl, pH 8.0, 0.1% Tween 20) for 1 hour at room temperature. The primary antibody used for pMER was from PhosphoSolutions (Aurora, Colo.; #p186-749). The remaining antibodies were obtained from Cell Signaling Technology: MER (#4319), pAXL (#5724), AXL, (#4566), GAS6 (#67202), pAKT (#4060), AKT (#9272), and β-Actin (#4970). Primary antibodies were added at 1:500 and 1:1000, respectively, in 0.5% milk/wash buffer and rocked overnight at 4° C. The membranes were washed three times in wash buffer before incubation with the secondary antibody (anti-rabbit IgG1-HRP; Cell Signaling Technology) at 1:2500 in 0.5% milk/wash buffer for 2 hours at room temperature. The membranes were washed again before the bands were detected with SuperSignal West Dura Extended Duration Chemiluminescent substrate (ThermoFisher Scientific) and were visualized using the Fluorochem M Digital Imager (Protein Simple, San Jose, Calif.).
MBT-2 cells were obtained from the Japanese Collection of Research Bioresources Cell Bank and were maintained in DMEM supplemented with 10% FBS. MC38 cells were obtained from the NCI. 4T1 cells were obtained from ATCC and maintained in RPMI media supplemented with 10% FBS. For MBT-2 experiments, 5×10^5 MBT-2 cells were inoculated subcutaneously into the right hind flank of 6- to 8-week-old C3H mice or athymic nude mice (Charles River Laboratories, Wilmington, Mass.). […] Mice were monitored for tumor growth and overt tolerability over the course of the experiment. […]

CC(C)C(=O)N1CCC(c2cc(-c3ccc(NC(=O)c4cn(C(C)C)c(=O)n(-c5ccccn5)c4=O)cc3)c3c(N)ncnn23)CC1 [Compound 1, N-(4-(4-Amino-7-(1-isobutyrylpiperidin-4-yl)pyrrolo[1,2-f][1,2,4]triazin-5-yl)phenyl)-1-isopropyl-2,4-dioxo-3-(pyridin-2-yl)-1,2,3,4-tetrahydropyrimidine-5-carboxamide]
effect on macrophage-mediated suppression of T-cell proliferation ([1]; FIG. 5A): partially reversed macrophage-mediated suppression of T-cell proliferation | IFN-γ production ([1]; macrophage/T-cell co-culture supernatant, FIG. 5B): increase in IFN-γ production | antitumor response (CTG-1339 tumors; CTG-1339, 10, 30, 100 mg/kg BID oral, FIG. 9C): resistant | pAKT in tumors (Western blot) (CTG-1339 tumors; CTG-1339 tumors, FIG. 9D): only inhibited in CTG-2041 | pAXL and pMER in tumors (Western blot) (CTG-1339 tumors; CTG-1339 tumors, FIG. 9D): inhibited | total MER levels in tumors (Western blot) (CTG-1339 tumors; CTG-1339 tumors, FIG. 9D): increased
